The values below come from ChEMBL document CHEMBL5726119, “Macrocyclic compounds as IRAK4 inhibitors for the treatment of inflammatory diseases” (2017).

As usually defined, the IC50 is the midpoint of a concentration-inhibition curve. Lower therefore signals greater potency.

Each structure is given as a SMILES string. Some results are limits rather than exact numbers.

The experiment addresses T1, Interleukin-1 receptor-associated kinase 4 (Homo sapiens, UniProt Q9NWZ3).
T1 sequence (Q9NWZ3 whole entry): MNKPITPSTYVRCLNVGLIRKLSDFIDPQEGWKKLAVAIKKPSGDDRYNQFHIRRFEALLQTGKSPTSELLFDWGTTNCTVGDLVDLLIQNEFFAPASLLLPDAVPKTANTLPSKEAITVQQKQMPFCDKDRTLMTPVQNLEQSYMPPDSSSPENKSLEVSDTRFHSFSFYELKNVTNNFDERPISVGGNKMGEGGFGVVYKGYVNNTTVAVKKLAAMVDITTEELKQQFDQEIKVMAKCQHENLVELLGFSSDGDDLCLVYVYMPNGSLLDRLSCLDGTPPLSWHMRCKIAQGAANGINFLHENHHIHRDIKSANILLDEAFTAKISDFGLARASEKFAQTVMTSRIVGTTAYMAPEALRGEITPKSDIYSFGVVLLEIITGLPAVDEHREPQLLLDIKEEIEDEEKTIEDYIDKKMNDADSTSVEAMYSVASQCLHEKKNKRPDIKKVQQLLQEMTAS
Briefly: Biochemical Assay: The biochemical assay is in a AlphaScreen format. The kinase reaction is based on the IRAK-4 phosphorylation of a biotin labeled peptide. The phosphopeptide is incubated with anti-phosphothreonine antibody as well as streptavidin- and protein A-coated beads. Binding of the protein-A coated beads to the antibody and the streptavidin beads to the peptide, leads to an energy transfer from one bead to the other, ultimately producing a luminescent/fluorescent signal.Generally, the kinase reaction is carried out at 1 nM IRAK4, 1.6 μM peptide, 10 μM ATP in reaction buffer 50 mM Hepes, 60 mM NaCl, 5 mM MgCl2, 0.25 mM MnCl2, 2 mM DTT, 0.01% BSA, 0.01% Tween-20) for 3.5 h at RT. (In general: Alpha assays give light when donor and acceptor beads are brought close together.)
Consider `Cn1cc2c(n1)C(=O)NCCOCCOc1cc(ccn1)-c1cc(cs1)C(=O)N2`, for which the IC50 was under 0.1 µM.

`CC(C)C1NC(=O)c2nn(C3CCOCC3)cc2NC(=O)c2csc(n2)-c2ccnc(c2)CCCNC1=O` (stereo not given): the IC50 was under 10 µM.

On to `Cn1cc2c(n1)C(=O)NCCOCCOc1cc(ccn1)-c1cncc(c1)C(=O)N2`, for which the IC50 is under 10 µM.

On to `O=C1NCCCOC2CCCC(CNc3cc(ccn3)-c3nc1cs3)C2` (stereo not given), for which the IC50 is over 10 µM.

`Cn1cc2c(n1)C(=O)NCCOCCOc1cc(ccn1)-c1cc(ccn1)C(=O)N2` had an IC50 of under 1 µM.
